Values joined by “and” are separate entries in the source; they are usually repeats but may differ in a detail not shown here. Equal entries are not always repeated. Where two headings read alike, the source gives them in different places.
Tests used:
[1] = Plasma PK and tissue distribution after oral dosing of prodrug EXAMPLE 7 (5 mg/kg); format: in vivo; conditions: PO 5 mg/kg EXAMPLE 7 (prodrug), analyte as labelled
Description: (§1) Tissue Distribution of drug intermediate C4 from oral dosing of C4 and of intermediate C4 from oral dosing of example 7 in rats
• Wistar Han rat, 185-197 g, male, N=8, purchased from Beijing Vital River Co. LTD. Qualification No.: SCXK(J) 2016-0011 11400700240027. Fasted overnight and fed 4 hr post dose. PO: 5 mg/kg (10 mL/kg) via oral gavage(N=8). Sampling at 1, 4, 8 and 24 hr , 4 time points, terminal bleeding for plasma, liver, lymph nodes and spleen collected at each time point

[2] = Plasma PK and tissue distribution after oral dosing of INTERMEDIATE C4 (3 mg/kg); format: in vivo; conditions: PO 3 mg/kg INTERMEDIATE C4, male Wistar Han rat
Description: as §1
• Wistar Han rat, 185-197 g, male, N=8, purchased from Beijing Vital River Co. LTD. Qualification No.: SCXK(J) 2016-0011 11400700240027. Fasted overnight and fed 4 hr post dose. PO: 3 mg/kg (10 mL/kg) via oral gavage(N=8). Sampling at 1, 4, 8 and 24 hr , 4 time points, terminal bleeding for plasma, liver, lymph nodes and spleen collected at each time point.

[3] = male Wistar Han rat, 1 hr, 5 mg/kg
[4] = male Wistar Han rat, 4 hr, 5 mg/kg

Compound: CC(C)CN(c1ccc([C@H](C)CC(=O)O)cc1Nc1cnc(Cl)cn1)C1CCOCC1 [intermediate C4]
- Lymph node to plasma ratio individual [1, 3]: 2.99
- Spleen to plasma ratio individual [1, 3]: 0.677
- lymph node Concentration individual [1, 3]: 685 ng/g
- plasma Concentration individual [1, 3]: 229 ng/mL
- spleen Concentration individual [1, 3]: 155 ng/g
- Lymph node to plasma ratio individual [1, 4]: 2.15
- Spleen to plasma ratio individual [1, 4]: 0.260
- lymph node Concentration individual [1, 4]: 63.1 ng/g
- spleen Concentration individual [1, 4]: 23.1 ng/g and 7.65 ng/g
- spleen Concentration Mean ([1]; male Wistar Han rat, 8 hr): BQL
- spleen Concentration individual ([1]; male Wistar Han rat, 8 hr): BQL
- lymph node Concentration individual ([1]; male Wistar Han rat, 8 hr, 5 mg/kg): 16.3 ng/g and 6.17 ng/g
- liver Concentration Mean ([1]; male Wistar Han rat, 24 hr): BQL
- liver Concentration individual ([1]; male Wistar Han rat, 24 hr): BQL
- lymph node Concentration Mean ([1]; male Wistar Han rat, 24 hr): BQL
- lymph node Concentration individual ([1]; male Wistar Han rat, 24 hr): BQL
- plasma Concentration Mean ([1]; male Wistar Han rat, 24 hr): BQL
- plasma Concentration individual ([1]; male Wistar Han rat, 24 hr): BQL
- spleen Concentration Mean ([1]; male Wistar Han rat, 24 hr): BQL
- spleen Concentration individual ([1]; male Wistar Han rat, 24 hr): BQL
- AUC(0-t) ([1]; lymph node, male Wistar Han rat, read-out: AUClast (lymph node)): 1890 ng·h/mL
- concentration at 1 h ([1]; male, Wistar Han, rat, lymph node, po, 5 mg/kg, 1 hr, read-out: lymph node Concentration Mean): 807 ng/g
- concentration at 1 h ([1]; male, Wistar Han, rat, lymph node, po, 5 mg/kg, 1 hr, read-out: lymph node Concentration individual): 928 ng/g
- concentration at 4 h ([1]; male, Wistar Han, rat, lymph node, po, 5 mg/kg, 4 hr, read-out: lymph node Concentration Mean): 73.8 ng/g
- concentration at 4 h ([1]; male, Wistar Han, rat, lymph node, po, 5 mg/kg, 4 hr, read-out: lymph node Concentration individual): 84.4 ng/g
- concentration at 8 h ([1]; male, Wistar Han, rat, lymph node, po, 5 mg/kg, 8 hr): 11.2 ng/g
- Kp at 1 h ([1]; male, Wistar Han, rat, lymph node/plasma, po, 5 mg/kg, 1 hr, read-out: Lymph node to plasma ratio Mean): 3.86
- Kp at 1 h ([1]; male, Wistar Han, rat, lymph node/plasma, po, 5 mg/kg, 1 hr, read-out: Lymph node to plasma ratio individual): 4.73
- Kp at 4 h ([1]; male, Wistar Han, rat, lymph node/plasma, po, 5 mg/kg, 4 hr, read-out: Lymph node to plasma ratio Mean): 1.66
- Kp at 4 h ([1]; male, Wistar Han, rat, lymph node/plasma, po, 5 mg/kg, 4 hr, read-out: Lymph node to plasma ratio individual): 1.16
- Kp at 8 h ([1]; male, Wistar Han, rat, lymph node/plasma, po, 5 mg/kg, 8 hr, read-out: Lymph node to plasma ratio Mean): 0.994
- Kp at 8 h ([1]; male, Wistar Han, rat, lymph node/plasma, po, 5 mg/kg, 8 hr, read-out: Lymph node to plasma ratio individual): 0.994
- Kp ([1]; male, Wistar Han, rat, lymph node/plasma, po, 5 mg/kg, read-out: AUClimphnode/AUCplasma): 2.99
- concentration at 1 h ([1]; male, Wistar Han, rat, plasma, po, 5 mg/kg, 1 hr, read-out: plasma Concentration Mean): 213 ng/mL
- concentration at 1 h ([1]; male, Wistar Han, rat, plasma, po, 5 mg/kg, 1 hr, read-out: plasma Concentration individual): 196 ng/mL
- concentration at 1 h ([1]; male, Wistar Han, rat, spleen, po, 5 mg/kg, 1 hr, read-out: spleen Concentration Mean): 165 ng/g
- concentration at 1 h ([1]; male, Wistar Han, rat, spleen, po, 5 mg/kg, 1 hr, read-out: spleen Concentration individual): 175 ng/g
- concentration at 4 h ([1]; male, Wistar Han, rat, spleen, po, 5 mg/kg, 4 hr, read-out: spleen Concentration Mean): 15.4 ng/g
- Kp at 1 h ([1]; male, Wistar Han, rat, spleen/plasma, po, 5 mg/kg, 1 hr, read-out: Spleen to plasma ratio Mean): 0.785
- Kp at 1 h ([1]; male, Wistar Han, rat, spleen/plasma, po, 5 mg/kg, 1 hr, read-out: Spleen to plasma ratio individual): 0.893
- Kp at 4 h ([1]; male, Wistar Han, rat, spleen/plasma, po, 5 mg/kg, 4 hr, read-out: Spleen to plasma ratio Mean): 0.289
- Kp at 4 h ([1]; male, Wistar Han, rat, spleen/plasma, po, 5 mg/kg, 4 hr, read-out: Spleen to plasma ratio individual): 0.319
- Kp ([1]; male, Wistar Han, rat, spleen/plasma, po, 5 mg/kg, read-out: AUCspleen/AUCplasma): 0.558
- AUC(0-t) ([1]; spleen, male Wistar Han rat, read-out: AUClast (spleen)): 353 ng·h/mL
- Liver to plasma ratio individual ([2]; 1 hr, 3 mg/kg): 8.11
- Lymph node to plasma ratio individual ([2]; 1 hr, 3 mg/kg): 0.254
- Spleen to plasma ratio individual ([2]; 1 hr, 3 mg/kg): 0.197
- liver Concentration individual ([2]; 1 hr, 3 mg/kg): 2570 ng/g
- lymph node Concentration individual ([2]; 1 hr, 3 mg/kg): 80.4 ng/g
- plasma Concentration individual ([2]; 1 hr, 3 mg/kg): 317 ng/mL
- spleen Concentration individual ([2]; 1 hr, 3 mg/kg): 62.4 ng/g
- Liver to plasma ratio individual ([2]; 4 hr, 3 mg/kg): 14.7
- Lymph node to plasma ratio individual ([2]; 4 hr, 3 mg/kg): 0.905
- Spleen to plasma ratio individual ([2]; 4 hr, 3 mg/kg): 0.333
- liver Concentration individual ([2]; 4 hr, 3 mg/kg): 898 ng/g
- lymph node Concentration individual ([2]; 4 hr, 3 mg/kg): 55.4 ng/g
- plasma Concentration individual ([2]; 4 hr, 3 mg/kg): 61.2 ng/mL
- spleen Concentration individual ([2]; 4 hr, 3 mg/kg): 20.4 ng/g
- spleen Concentration Mean ([2]; 8 hr): BQL
- spleen Concentration individual ([2]; 8 hr): BQL

— US20210186960A1, “MODULATORS OF INDOLEAMINE 2,3-DIOXYGENASE” (GLAXOSMITHKLINE INTELLECTUAL PROPERTY DEVELOPMENT LIMITED, priority 2017, published 2021)
